Measured values as given in patent publication US20210198277A1, “AMINE-SUBSTITUTED ARYL OR HETEROARYL COMPOUNDS” (Epizyme, Inc., priority 2016, published 2021).

molecular target: T1, EHMT2 (Homo sapiens, UniProt Q96KQ7); test: MDA-MB-231 H3K9me2 in-cell Western assay (EHMT2 ICW); assay type: cell-based; conditions: H3K9me2 in-cell Western, MDA-MB-231 cells; read-out: EHMT2 ICW (IC50 μM)
T1 construct: host or cells: MDA-MB-231
T1 sequence (Q96KQ7 1-1210): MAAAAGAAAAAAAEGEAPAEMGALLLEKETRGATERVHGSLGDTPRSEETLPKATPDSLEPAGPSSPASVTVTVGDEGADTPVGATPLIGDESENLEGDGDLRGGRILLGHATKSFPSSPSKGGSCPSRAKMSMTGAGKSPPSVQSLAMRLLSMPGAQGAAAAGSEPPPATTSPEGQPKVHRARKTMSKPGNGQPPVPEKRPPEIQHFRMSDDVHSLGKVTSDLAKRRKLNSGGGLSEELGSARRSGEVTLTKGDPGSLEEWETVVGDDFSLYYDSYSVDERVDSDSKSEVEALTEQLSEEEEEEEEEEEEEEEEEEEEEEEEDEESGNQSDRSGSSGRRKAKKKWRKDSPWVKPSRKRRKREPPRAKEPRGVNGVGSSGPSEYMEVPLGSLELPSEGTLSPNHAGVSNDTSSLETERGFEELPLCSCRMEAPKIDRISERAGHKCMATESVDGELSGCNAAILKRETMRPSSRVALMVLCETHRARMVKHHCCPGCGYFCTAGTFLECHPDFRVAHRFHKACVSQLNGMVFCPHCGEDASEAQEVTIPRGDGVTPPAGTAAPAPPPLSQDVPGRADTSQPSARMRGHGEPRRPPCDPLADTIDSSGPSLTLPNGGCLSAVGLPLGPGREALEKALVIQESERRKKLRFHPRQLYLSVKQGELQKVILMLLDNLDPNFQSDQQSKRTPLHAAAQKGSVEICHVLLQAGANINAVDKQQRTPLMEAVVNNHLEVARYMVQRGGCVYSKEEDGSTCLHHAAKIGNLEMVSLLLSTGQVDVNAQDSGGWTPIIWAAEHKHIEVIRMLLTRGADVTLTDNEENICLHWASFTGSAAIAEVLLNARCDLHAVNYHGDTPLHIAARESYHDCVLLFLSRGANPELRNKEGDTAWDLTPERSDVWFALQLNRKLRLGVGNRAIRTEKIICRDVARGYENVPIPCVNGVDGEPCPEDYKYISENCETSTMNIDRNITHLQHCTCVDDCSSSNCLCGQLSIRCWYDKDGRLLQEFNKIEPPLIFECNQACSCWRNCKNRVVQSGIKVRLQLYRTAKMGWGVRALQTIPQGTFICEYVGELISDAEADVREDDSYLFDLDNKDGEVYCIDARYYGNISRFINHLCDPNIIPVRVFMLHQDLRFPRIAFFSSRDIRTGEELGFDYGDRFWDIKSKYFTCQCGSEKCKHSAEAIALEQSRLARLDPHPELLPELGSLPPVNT
Outline: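 IC50 values came from a variable-slope four-parameter fit on triplicate wells, using % inhibition from the 800/700 nm infrared signal ratio (anti-H3K9me2 versus DRAQ5 DNA stain). Before fixation and immunostaining, MDA-MB-231 cells, 3,000 per well, were exposed to compound for 48 h at 37 °C.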

| Compound | IC50 [µM] |
| --- | --- |
| COc1cc(NC2CCCNC2)ccc1OCCCN1CCCC1 (stereo not drawn) [Compound 578] | > 10 |
| COc1cnc(Nc2cccn3ccnc23)cc1OCCCN1CCCC1 [Compound 586] | > 10 |
| C/C=C/C(=O)Nc1cc(OCCCN2CCCC2)c(OC)cn1 [Compound 597] | > 10 |
| CCCCN1CCC(C)(Nc2nccc(NC)n2)CC1 [Compound 550, N^2-(1-butyl-4-methylpiperidin-4-yl)-N^4-methylpyrimidine-2,4-diamine] | > 10 |
| COc1cnc(Nc2cccc3nccn23)cc1OCCCN1CCCC1 [Compound 585] | 1 to 10 |
| COc1ccc(NC2CCNCC2)cc1OCCCN1CCCC1 [Compound 572] | > 10 |
| CN1CCC(COc2cnc(NC3CCNCC3)nc2)C1 (stereo not drawn) [Compound 555] | > 10 |
| c1nc(NC2CCNCC2)ncc1OCC1CCN(C2CC2)C1 (stereo not drawn) [Compound 556] | > 10 |
| COc1ccc(Nc2nccc3[nH]ncc23)cc1OCCCN1CCCC1 [Compound 582] | > 10 |
| COc1cc(NC2CCNCC2)ccc1OCCCN1CCCC1 [Compound 579] | > 10 |
| CNc1ccnc(N[C@@H]2CC[C@H](N)C2)n1 [Compound 548, N^2-((1R,3S)-3-aminocyclopentyl)-N^4-methylpyrimidine-2,4-diamine] | > 10 |
| CNc1ccnc(Nc2cc(OCCCN3CCCC3)c3[nH]ncc3c2)n1 [Compound 539] | > 10 |
| CNc1ccnc(NC2CCNCC2)n1 [Compound 542, N^4-methyl-N^2-(piperidin-4-yl)pyrimidine-2,4-diamine] | > 10 |
| COc1ncc(Nc2nc(C)cc(NCC3CCOCC3)n2)cc1OCCCN1CCCC1 [Compound 591] | 0.1 to 1 |
| CN1CCC(COc2ccc(NC3CCNCC3)nc2)C1 (stereo not drawn) [Compound 554] | > 10 |
| CN1CCC(COc2cnc(NCC3CCOCC3)nc2)C1 (stereo not drawn) [Compound 553] | > 10 |
| CCN1CC(COc2cc(Nc3nccc4[nH]ccc34)ncc2OC)C1 [Compound 564] | > 10 |
| CCCC1(Nc2nccc(NC)n2)CCCNC1 (stereo not drawn) [Compound 544] | > 10 |
| CCCCN1CCCC(C)(Nc2nccc(NC)n2)C1 (stereo not drawn) [Compound 549, N^2-(1-butyl-3-methylpiperidin-3-yl)-N^4-methylpyrimidine-2,4-diamine] | > 10 |

| Compound | IC50 [µM] |
| --- | --- |
| CNc1ccnc(NC2CCCNC2)n1 (stereo not drawn) [Compound 541, N^4-methyl-N^2-(piperidin-3-yl)pyrimidine-2,4-diamine] | > 10 |
| COc1cnc(Nc2cc(C)nc3[nH]ncc23)cc1OCCCN1CCCC1 [Compound 596] | > 10 |
| COc1cc2c(C3CCN(C)CC3)nc(N(C)C)nc2cc1OCCCN1CCCC1 [Compound 587] | 0.1 to 1 |
| c1nc(NC2CCNCC2)ncc1OCCCN1CCCC1 [Compound 552] | > 10 |
| CC(C)N1CC(COc2cnc(NC3CCNCC3)nc2)C1 [Compound 588] | > 10 |
| CNc1ccnc(Nc2cc(OCCCN3CCCC3)c3cn[nH]c3c2)n1 [Compound 538, N^4-methyl-N^2-(4-(3-(pyrrolidin-1-yl)propoxy)-1H-indazol-6-yl)pyrimidine-2,4-diamine] | > 10 |
| COc1cnc(Nc2cccc3cncn23)cc1OCCCN1CCCC1 [Compound 589] | > 10 |
| COc1cnc(Nc2cccc3[nH]ncc23)cc1OCCCN1CCCC1 [Compound 581] | > 10 |
| COc1cnc(Nc2ccnc3[nH]ncc23)cc1OCCCN1CCCC1 [Compound 583] | > 10 |
| CNc1ccnc(NC2(C)CCNCC2)n1 [Compound 547, N^4-methyl-N^2-(4-methylpiperidin-4-yl)pyrimidine-2,4-diamine] | > 10 |
| CNc1ccnc(NC2(C)CCCNC2)n1 (stereo not drawn) [Compound 546, N^4-methyl-N^2-(3-methylpiperidin-3-yl)pyrimidine-2,4-diamine] | > 10 |
| CCCC1(Nc2nccc(NC)n2)CCNCC1 [Compound 545] | > 10 |
| COc1ncc(Nc2nc(C)cc(NCC3CCOCC3)n2)cc1OC[C@@H]1CCN(C2CCC2)C1 [Compound 595] | 0.1 to 1 |
| COc1cc(Nc2nc(C)cc3[nH]ncc23)ncc1OCCCN1CCCC1 [Compound 565] | 1 to 10 |
| COc1ncc(Nc2nc(C)cc(NCC3CCOCC3)n2)cc1OC[C@@H]1CCN(C2CCC2)C1 [Compound 594] | 0.1 to 1 |
| c1nc(NC2CCOCC2)ncc1OCC1CCN(C2CC2)C1 (stereo not drawn) [Compound 557] | > 10 |
| C/C=C/C(=O)Nc1ccc(OC)c(OCCCN2CCCC2)c1 [Compound 598] | > 10 |
| COc1ccc(NC2CCCNC2)cc1OCCCN1CCCC1 (stereo not drawn) [Compound 573] | > 10 |

Results, then the molecule that gave them:

| IC50 [µM] | Compound |
| --- | --- |
| > 10 | CCN1CC(COc2cc(Nc3cc(NC)ncc3F)ncc2OC)C1 [Compound 566] |
| 0.1 to 1 | CNc1cc(C)nc(Nc2ccc(OC)c(OCC3CN(C4CCC4)C3)c2)n1 [Compound 576] |
| 0.1 to 1 | COc1ccc(Nc2nc(C)cc(NCC3CCOCC3)n2)cc1OCCCN1CCCC1 [Compound 590] |
| 1 to 10 | CNc1cc(C)nc(Nc2ccc(OC)c(OCC3CN(C(C)C)C3)c2)n1 [Compound 575] |
| > 10 | CNc1cc(C)nc(Nc2ccc(OC)c(OCC3CN(C4CCOC4)C3)c2)n1 (stereo not drawn) [Compound 580] |
| 0.1 to 1 | CCN1CC[C@@H](COc2cc(Nc3nc(C)cc(NC)n3)cnc2OC)C1 [Compound 599] |
| 0.1 to 1 | CNc1cc(C)nc(Nc2cnc(OC)c(OC[C@H]3CCN(C4CC4)C3)c2)n1 [Compound 558] |
| 0.1 to 1 | CNc1cc(C)nc(Nc2ccc(OC)c(OCCCN(C)C3CCC3)c2)n1 [Compound 551, N^2-(3-(3-(cyclobutyl(methyl)amino)propoxy)-4-methoxyphenyl)-N^4,6-dimethylpyrimidine-2,4-diamine] |
| 0.1 to 1 | COc1ncc(Nc2nc(C)cc(NC(C)C)n2)cc1OCCCN1CCCC1 [Compound 593] |
| > 10 | CNc1cc(C)nc(Nc2ccc(OC)c(O)c2)n1 [Compound 561] |
| 0.1 to 1 | CCN1CC(COc2cc(Nc3cc(NC)cc(C)n3)cnc2OC)C1 [Compound 569] |
| > 10 | CNc1cc(C)nc(Nc2ccc(OC)c(OCC3CN(C4CCCC4)C3)c2)n1 [Compound 577] |
| > 10 | CCN1CC(COc2cc(Nc3cc(NC)nc(C)c3F)ncc2OC)C1 [Compound 567] |
| 0.1 to 1 | CNc1cc(C)nc(Nc2ccc(OC)c(OCC3CN(C(C)C)C3)c2)n1 [Compound 559] |
| 0.1 to 1 | COc1ncc(Nc2nc(C)cc(NCC3CCOCC3)n2)cc1OC[C@@H]1CCN(C(C)C)C1 [Compound 592] |
| 0.1 to 1 | COc1ccc(Nc2nc(C)cc(NC(C)C)n2)cc1OCCCN1CCCC1 [Compound 603] |
| < 0.1 | CNc1cc(C)nc(Nc2ccc(OC)c(OC[C@@H]3CCN(C4CCC4)C3)c2)n1 [Compound 563] |
| 0.1 to 1 | CCN1CC(C(O)Oc2cc(Nc3nc(C)cc(NC)n3)ccc2OC)C1 (stereo not drawn) [Compound 560] |
| 1 to 10 | CCN1CC(C(C#N)Oc2cc(Nc3nc(C)cc(NC)n3)ccc2OC)C1 (stereo not drawn) [Compound 562] |
| < 0.1 | CNc1cc(C)nc(Nc2ccc(OC)c(OC[C@@H]3CCNC3)c2)n1 [Compound 600] |
| 0.1 to 1 | CCN1CC[C@@H](COc2cc(Nc3nc(C)cc(NC(C)C)n3)ccc2OC)C1 [Compound 602] |
| > 10 | CNc1cc(C)nc(Nc2ccc(OC)c(OCCCN3CC4(CC4)C3)c2)n1 [Compound 574] |
| > 10 | CCN1CC(COc2cc(Nc3cccc4nncn34)ncc2OC)C1 [Compound 584] |
| 0.1 to 1 | CCc1cc(NC)nc(Nc2cnc(OC)c(OC[C@@H]3CCN(CC)C3)c2)n1 [Compound 601] |
| 0.1 to 1 | CCN1CC[C@@H](COc2cc(Nc3nc(C)cc(NC)n3)ccc2OC)C1 [Compound 571] |
| 0.1 to 1 | CNc1cc(C)nc(Nc2ccc(OC)c(OC[C@@H]3CCN(C4(C)CC4)C3)c2)n1 [Compound 568] |
